Results reported in ChEMBL document CHEMBL1137624, “Synthesis and characterization of pyrrolidine derivatives as potent agonists of the human melanocortin-4 receptor” (Bioorg Med Chem Lett, 2007).
The source made the active and inactive calls. The rule behind the calls is not given here.

Tests used:
[1] = tested on: Caco-2; assay: Ratio of permeability from […] side of Caco-2 cells; format: ADME, cell-based; conditions: human
[2] = target: Melanocortin receptor 3 (Homo sapiens, UniProt P41968); assay: Binding affinity at human MC3 receptor
[3] = target: T1, Melanocortin receptor 4 (Homo sapiens, UniProt P32245); assay: Displacement of [125I]NDP-MSH from human MC4 receptor expressed in HEK293 cells; format: cell-based
[4] = target: Melanocortin receptor 5 (Homo sapiens, UniProt P33032); assay: Binding affinity at human MC5 receptor
[5] = species: Rattus norvegicus; assay: Decrease in cumulative food intake in high-fat diet fed CD rat after 24 hrs; format: functional, organism-based
[6] = tested on: Rattus norvegicus; assay: Decrease in cumulative food intake in high-fat diet fed CD rat at 30 mg/kg, ip after 1 to 6 hrs; format: functional, organism-based; parameters: dose 30 mg/kg
[7] = target: T1, Melanocortin receptor 4; assay: Agonist activity at human MC4 receptor expressed in CHO cells assessed as cAMP accumulation by ELISA; format: functional, cell-based
[8] = Oral bioavailability in rat at 10 mg/kg, po; format: ADME, organism-based; conditions: in vivo
[9] = target: T1, Melanocortin receptor 4; assay: Intrinsic activity at human MC4 receptor expressed in CHO cells assessed as cAMP accumulation relative to alpha-MSH; format: functional, cell-based
[10] = Apparent permeability across apical to basolateral side of Caco-2 cells; format: ADME, cell-based; conditions: human
[11] = Distribution coefficient, log D by shake flake method; format: physicochemical; conditions: octanol/water
[12] = Concentration in rat brain at 2.5 mg/kg, iv after 4 hrs; format: ADME, organism-based; parameters: dose 2.5 mg/kg, route intravenous; conditions: read-out: Drug uptake
[13] = target: Melanocyte-stimulating hormone receptor (Homo sapiens, UniProt Q01726); assay: Binding affinity at human MC1 receptor
[14] = Cmax in rat at 10 mg/kg, po after 3 hrs; format: ADME, organism-based; parameters: dose 10 mg/kg, route oral; conditions: in vivo
[15] = Plasma clearance in rat at 2.5 mg/kg, iv; format: ADME, organism-based; parameters: dose 2.5 mg/kg, route intravenous
[16] = AUC in rat at 10 mg/kg, po; format: ADME, organism-based; parameters: dose 10 mg/kg, route oral; conditions: plasma
[17] = Volume of distribution in rat at 2.5 mg/kg, iv; format: ADME, organism-based; parameters: dose 2.5 mg/kg, route intravenous; conditions: in vivo
[18] = Ratio of drug level in brain to plasma in rat at 2.5 mg/kg, iv; format: ADME, organism-based; parameters: dose 2.5 mg/kg, route intravenous; conditions: read-out: BPR
[19] = Half life in rat at 2.5 mg/kg, iv; format: ADME, organism-based; parameters: dose 2.5 mg/kg, route intravenous; conditions: in vivo
[20] = Concentration in rat brain at 2.5 mg/kg, iv after 1 hr; format: ADME, organism-based; parameters: dose 2.5 mg/kg, route intravenous; conditions: read-out: Drug uptake

T1 sequence (P32245 whole entry): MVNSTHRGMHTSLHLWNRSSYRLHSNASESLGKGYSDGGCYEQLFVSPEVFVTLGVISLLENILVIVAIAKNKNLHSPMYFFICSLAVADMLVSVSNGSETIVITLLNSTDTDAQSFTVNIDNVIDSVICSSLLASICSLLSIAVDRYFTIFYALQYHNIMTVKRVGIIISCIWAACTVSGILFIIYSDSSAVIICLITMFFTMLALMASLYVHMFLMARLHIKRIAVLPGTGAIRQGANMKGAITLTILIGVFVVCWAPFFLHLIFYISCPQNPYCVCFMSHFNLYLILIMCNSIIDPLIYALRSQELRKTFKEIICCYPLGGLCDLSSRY
Chain of Melanocortin receptor 5 (P33032 whole entry): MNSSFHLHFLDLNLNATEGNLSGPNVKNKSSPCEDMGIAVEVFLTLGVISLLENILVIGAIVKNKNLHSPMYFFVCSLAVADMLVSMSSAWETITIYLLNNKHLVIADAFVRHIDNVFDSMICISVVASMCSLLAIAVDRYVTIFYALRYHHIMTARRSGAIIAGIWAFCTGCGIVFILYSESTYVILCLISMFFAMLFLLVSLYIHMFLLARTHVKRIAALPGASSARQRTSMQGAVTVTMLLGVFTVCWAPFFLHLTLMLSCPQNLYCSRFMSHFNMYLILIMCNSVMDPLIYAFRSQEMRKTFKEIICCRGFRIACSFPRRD
Chain of Melanocortin receptor 3 (P41968 whole entry): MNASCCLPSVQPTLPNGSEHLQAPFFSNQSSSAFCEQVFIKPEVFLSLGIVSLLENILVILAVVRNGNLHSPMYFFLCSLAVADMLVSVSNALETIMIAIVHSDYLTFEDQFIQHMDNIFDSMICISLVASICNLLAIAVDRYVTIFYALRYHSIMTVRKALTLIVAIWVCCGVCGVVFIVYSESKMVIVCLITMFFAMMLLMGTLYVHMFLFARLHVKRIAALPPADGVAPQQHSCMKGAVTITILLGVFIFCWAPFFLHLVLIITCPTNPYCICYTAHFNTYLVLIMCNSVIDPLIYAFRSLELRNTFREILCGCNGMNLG
Chain of Melanocyte-stimulating hormone receptor (Q01726 whole entry): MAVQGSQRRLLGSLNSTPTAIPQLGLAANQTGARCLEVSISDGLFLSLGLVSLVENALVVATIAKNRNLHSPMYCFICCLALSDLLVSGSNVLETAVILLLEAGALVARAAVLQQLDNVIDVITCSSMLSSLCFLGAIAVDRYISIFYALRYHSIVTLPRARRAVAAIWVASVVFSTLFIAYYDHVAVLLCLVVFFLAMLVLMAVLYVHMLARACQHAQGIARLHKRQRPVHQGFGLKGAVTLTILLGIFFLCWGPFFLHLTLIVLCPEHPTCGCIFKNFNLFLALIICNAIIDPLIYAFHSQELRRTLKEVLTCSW

Ratio [1]: 25 | Ki [2]: 1600 nM | Ki [3]: 11 nM | Ki [4]: 240 nM | EC50 [7]: 24 nM | bioavailability [8]: 22% | Intrinsic activity [9]: 105% | Papp A→B [10]: 0.8 ×10⁻⁶ cm/s | logD [11]: 1.8 | concentration at 4 h [12]: 32 ng/g | Ki [13]: 3350 nM | Cmax [14]: 16 ng/mL | clearance [15]: 118 mL/min/kg | AUC [16]: 154 ng·h/mL | Vd [17]: 270 L/kg | Kp [18]: 0.7 | half-life [19]: 27 h | concentration at 1 h [20]: 5 ng/g
Compound: Cc1ccc(N2CCN(C(=O)[C@@H]3CN(C4CCOCC4)C[C@H]3c3ccc(Cl)cc3)CC2)c([C@@H](N)C(C)C)c1
Activity [5]: Dose-dependent effect | Activity [6]: Active
